Measured values: patent EP4656642A1, “ESTROGEN RECEPTOR PROTEOLYSIS TARGETING CHIMERA COMPOUND AND USE THEREOF” (GAN & LEE PHARM CO., LTD, priority 2023, dated 2024)

How the values were obtained:
Assay type in all cases: cell-based
ERα [1] = target: T1, ERα (Homo sapiens, UniProt P03372); assay: Degradation of ERα in MCF-7 cells (immunoblotting, 4 h)
T1 sequence (P03372 1-595): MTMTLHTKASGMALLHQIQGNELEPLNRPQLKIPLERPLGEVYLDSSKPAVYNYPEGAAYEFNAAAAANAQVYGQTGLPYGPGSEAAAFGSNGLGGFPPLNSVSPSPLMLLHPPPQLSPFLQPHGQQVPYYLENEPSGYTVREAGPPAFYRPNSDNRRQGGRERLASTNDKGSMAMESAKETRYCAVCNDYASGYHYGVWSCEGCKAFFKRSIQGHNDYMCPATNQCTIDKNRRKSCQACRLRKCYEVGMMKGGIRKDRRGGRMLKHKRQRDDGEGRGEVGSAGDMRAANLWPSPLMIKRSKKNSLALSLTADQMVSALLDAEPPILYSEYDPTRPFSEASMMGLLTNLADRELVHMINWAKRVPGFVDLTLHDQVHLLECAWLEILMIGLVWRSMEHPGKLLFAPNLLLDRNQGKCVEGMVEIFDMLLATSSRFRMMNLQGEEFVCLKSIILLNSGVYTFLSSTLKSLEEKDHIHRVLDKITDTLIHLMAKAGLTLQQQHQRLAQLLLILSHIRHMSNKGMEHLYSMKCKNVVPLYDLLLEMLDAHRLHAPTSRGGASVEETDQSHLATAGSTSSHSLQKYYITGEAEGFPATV
In short: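 Degradation rate reflects ERα band intensity, corrected to an internal reference protein, relative to control. Values come from Western blotting of lysates from MCF-7 cells exposed 4 h at 37°C to compounds at final concentrations of 0.15-1000nM.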

ERα [2] = target: T1, ERα; assay: Degradation of ERα in T-47D cells (immunoblotting, 4 h); parameters: host or cells: T-47D
In short: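 ERα protein levels were assessed by immunoblot of RIPA lysates (with protease inhibitor) after 4 h exposure at 37°C. Compound was added in DMSO to T-47D cells at final concentrations of 0.15-1000 nM.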

MCF-7 cells = assay: Inhibition of cell proliferation of MCF-7 cells (CCK-8, 9 days); conditions: treated for 9 days, CCK-8 kit (Table 6)
In short: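 Read-out was CCK-8 viability after 9-day continuous exposure (37°C, 5% CO2) of MCF-7 cells plated at 800/well in 10% FBS DMEM across several compound concentrations. Values are proliferation IC50s.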

Structure (SMILES)	Degradation rate (%) of ERα in MCF-7 cells (ERα [1]; 1nM compound)	Degradation rate (%) of ERα in MCF-7 cells (ERα [1]; 10nM compound)	Degradation rate (%) of ERα in T-47D cells (ERα [2]; 1nM compound)	Degradation rate (%) of ERα in T-47D cells (ERα [2]; 10nM compound)	IC50 (MCF-7 cells)
O=C1CCC(N2Cc3c(ccc4c3OCC43CCN(C(=O)CN4CCC5(CCN(c6ccc([C@@H]7c8ccc(O)cc8CC[C@@H]7c7ccccc7)cc6)CC5)C4)CC3)C2=O)C(=O)N1 (some centres unmarked) [A63]	69%	68%	67%	80%	3.24 nM
O=C1CCC(N2Cc3c(ccc4c3OC3(CC4)CCN(C4CCC5(CC4)CN(c4ccc([C@@H]6c7ccc(O)cc7CC[C@@H]6c6ccccc6)cc4)C5)CC3)C2=O)C(=O)N1 (some centres unmarked) [L22]	3%	18%	-7%	9%	111 nM
C[C@@H]1Cc2c(ccc3[nH]ncc23)C(c2ccc(N3CCC4(CCN(C(=O)CN5CCC6(CC5)COc5c6ccc6c5CN(C5CCC(=O)NC5=O)C6=O)C4)CC3)cn2)N1CC(F)(F)F (some centres unmarked) [J14]	5%	39%	55%	74%	9660 nM
CC1CC(N2CCC3(CC2)COc2c3ccc3c2CN(C2CCC(=O)NC2=O)C3=O)CCN1C1CC2(CCN(c3ccc(C4c5ccc(O)cc5CCC4c4ccccc4)cc3)CC2)C1 (centres unmarked) [K18]	43%	80%	42%	79%	12.6 nM
O=C1CCC(N2Cc3cc4c(cc3C2=O)C2(CCN(C3CCC5(CC3)CCN(c3ccc([C@@H]6c7ccc(O)cc7CC[C@@H]6c6ccccc6)cc3)CC5)CC2)CO4)C(=O)N1 (some centres unmarked) [L5]	6%	4%	12%	45%	830 nM
C[C@@H]1Cc2c(ccc3[nH]ncc23)C(c2ccc(N3CCC4(CC3)CC(N3CC[C@@H](N5CCC6(CC5)COc5c6ccc6c5CN(C5CCC(=O)NC5=O)C6=O)[C@@H](F)C3)C4)cn2)N1CC(F)(F)F (some centres unmarked) [H58]	50%	70%	53%	84%	2320 nM
O=C1CCC(N2Cc3c(ccc4c3OCC43CCN([C@@H]4CCN(CC5CCN(c6ccc([C@@H]7c8ccc(O)cc8CC[C@@H]7c7ccccc7)cc6)CC5)C[C@@H]4F)CC3)C2=O)C(=O)N1 (some centres unmarked) [J6]	52%	68%	39%	81%	9.31 nM
COC1(CN2CCC3(CC2)COc2c3ccc3c2CN(C2CCC(=O)NC2=O)C3=O)CCN(C(=O)C2CCN(c3ccc([C@@H]4c5ccc(O)cc5CC[C@@H]4c4ccccc4)cc3)CC2)CC1 (some centres unmarked) [D6]	38%	59%	59%	84%	33000 nM
O=C1CCC(N2Cc3c(ccc4c3OCC43CCN(C(=O)CN4CCC5(CCN(c6ccc([C@@H]7c8ccc(O)cc8CC[C@@H]7c7ccccc7)cc6)C5)C4)CC3)C2=O)C(=O)N1 (some centres unmarked) [H13]	39%	62%	48%	71%	3.24 nM
O=C1CCC(N2Cc3c(ccc4c3OCC43CCN(CC4CCC(N5CCN(c6ccc([C@@H]7c8ccc(O)cc8CC[C@@H]7c7ccccc7)cc6)CC5)CC4)CC3)C2=O)C(=O)N1 (some centres unmarked) [H15]	29%	51%	5%	56%	43.5 nM
C[C@@H]1Cc2cc(O)ccc2C(c2c(F)cc(N3CCC4(CCN(CC(=O)N5CCC6(CC5)COc5c6ccc6c5CN(C5CCC(=O)NC5=O)C6=O)CC4)CC3)cc2F)N1CC(F)F (some centres unmarked) [F4]	64%	63%	62%	79%	0.103 nM
O=C1CCC(N2C(=O)c3cc4c(cc3C2=O)OC2(CCN(C3CCN(C5CN(c6ccc([C@@H]7c8ccc(O)cc8CC[C@@H]7c7ccccc7)cc6)C5)CC3)CC2)C4)C(=O)N1 (some centres unmarked) [A59]	11%	11%	42%	50%	905 nM
O=C1CCC(N2Cc3c(ccc4c3OCC43CCN(C4CCN(C(=O)C5CCN(c6ccc(C7c8ccc(O)cc8CCC7c7ccccc7)cc6)CC5)C(C(=O)N5CCCCC5)C4)CC3)C2=O)C(=O)N1 (centres unmarked) [K31]	61%	65%	73%	79%	1.53 nM
O=C1CCC(N2Cc3c(ccc4c3OCC43CCN(CC(=O)N4CCC5(CCN(c6ccc([C@@H]7c8ccc(O)cc8CC[C@@H]7c7ccccc7)cc6)CC5)C4)CC3)C2=O)C(=O)N1 (some centres unmarked) [A73]	26%	72%	55%	73%	4170 nM
O=C1CCC(N2Cc3c(ccc4c3OCC43CCN(C(=O)CN4CCC(OC5CCN(c6ccc([C@@H]7c8ccc(O)cc8CC[C@@H]7c7ccccc7)cc6)CC5)CC4)CC3)C2=O)C(=O)N1 (some centres unmarked) [K47]	57%	80%	74%	89%	80.2 nM
CN(CC1CCN(c2ccc([C@@H]3c4ccc(O)cc4CC[C@@H]3c3ccccc3)cc2)CC1)[C@H]1CC[C@@H](C(=O)N2CCC3(CC2)COc2c3ccc3c2CN(C2CCC(=O)NC2=O)C3=O)CC1 (some centres unmarked) [B34]	64%	71%	71%	83%	179 nM
